Measurements from patent US20240277846A1, “MAGNETIC BIOMOLECULE-METAL ION SELF-ASSEMBLED COMPLEX FOR TREATMENT” (priority 2023, published 2024).
Counter-ions that a name gives are not always drawn.

Key:
P2Y1 = biological target: T1, P2Y1 (Homo sapiens, UniProt P47900); assay: Western blotting of macrophage signaling, P2Y1; format: cell-based; conditions: low concentration
T1 construct: endogenous in cells
From the text: (§1) It was identified that the Fe-ATP self-assembly was disassembled into the ATP and the iron ion such that the ATP was released therefrom, and this enabled AIP-mediated anti-inflammatory polarization of macrophages.

macrophages = assay: Macrophage polarization (immunofluorescence Arg-1/iNOS, flow cytometry); format: cell-based; conditions: immunofluorescence staining
From the text: FIG. 15 to FIG. 17 show experiments according to each of the treatment conditions in cells before experimenting in rats according to Experimental Example 2 below. As shown in a following table 6, the conditions were divided into the control group: PBS only based treatment, Fe-ATP based treatment, ATP only based treatment, FeCl2 based treatment, and Fe3O4 based treatment. FIG. 15 is the result of identifying disassembling of the Fe-ATP self-assembly. Referring to FIG. 15, under each treatment condition, an experiment result was identified via immunofluorescence staining of […] (M2 polarization marker), iNOS (M1 polarization marker), and Dapi. […] This was identified through flow cytometry.

P2X7 = biological target: T2, P2X7 (Homo sapiens, UniProt Q99572); assay: Western blotting of macrophage signaling, P2X7; format: cell-based; conditions: low concentration
T2 construct: endogenous in cells
T2 sequence (Q99572 1-595): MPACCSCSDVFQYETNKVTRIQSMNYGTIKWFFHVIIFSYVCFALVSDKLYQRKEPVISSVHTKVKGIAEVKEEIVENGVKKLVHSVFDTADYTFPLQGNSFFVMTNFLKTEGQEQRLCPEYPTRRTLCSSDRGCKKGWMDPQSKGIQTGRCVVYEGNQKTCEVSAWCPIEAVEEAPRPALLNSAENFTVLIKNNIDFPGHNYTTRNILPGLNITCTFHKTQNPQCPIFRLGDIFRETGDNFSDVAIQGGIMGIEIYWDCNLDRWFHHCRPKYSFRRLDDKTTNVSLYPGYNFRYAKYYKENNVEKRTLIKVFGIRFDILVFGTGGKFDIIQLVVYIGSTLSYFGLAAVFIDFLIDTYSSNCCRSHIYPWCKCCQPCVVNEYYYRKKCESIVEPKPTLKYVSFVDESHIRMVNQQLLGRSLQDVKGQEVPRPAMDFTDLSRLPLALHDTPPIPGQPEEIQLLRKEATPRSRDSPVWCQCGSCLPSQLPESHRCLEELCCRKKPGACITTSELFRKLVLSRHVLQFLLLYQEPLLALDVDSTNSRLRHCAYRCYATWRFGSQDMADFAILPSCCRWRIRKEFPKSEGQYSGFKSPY
From the text: as §1

stem cells = assay: Osteogenic differentiation of stem cells (RUNX2, osteocalcin immunofluorescence, ALP staining); format: cell-based
From the text: FIG. 27 and FIG. 28 show experiments according to each of treatment conditions in cells before experimenting in rabbits according to Experimental Example 3 below. As shown in a following table 7, the treatment conditions include treatment with only PBS as a control group, treatment with Fe-AMP, treatment with AMP only, treatment with a combination of adenosine and PO4 (Adenosine+PO4), treatment with Adenosine, treatment with PO4, treatment with FeCl2, and treatment with an osteogenic induction medium. In this regard, FeCl2 was disassembled into Fe^2+ and Cl—. Thus, the treatment with FeCl2 was added to compare the released Fe^2+ therefrom with the Fe^2+ released from the […]. […] The adenosine obtained via decomposition of the AMP released from the Fe-AMP self-assembly was similar to osteogenic differentiation medium, and was analyzed via actin and dapi-positive nuclei and ALP chemical staining along with immunofluorescence staining of RUNX2 and osteocalcin. […] In other words, the Fe-AMP self-assembly induces osteogenic differentiation of stem cells through adenosine signaling. This was identified via immunofluorescence staining of RUNX2 and osteocalcin along with actin, dapi-positive nuclei, and ALP chemical staining.

ROS = assay: IVIS L-012 ROS signal analysis in vivo; design: species or system mouse; conditions: 2 hours after the injection
Method: Luminescent probes L-012 (Wako Chemical, Korea) were dissolved in […] a thus prepared solution was maintained in a fresh state just before the experiment. In a 50 […] injection volume, 25 mg/kg thereof was administered subcutaneously to a back of a mouse. Chemiluminescence (CL) release assessment was started immediately after the injection of L-012 using indiGOTM software and IVIS (In vivo Imaging System, NightOWL II LB 983, BERTHOLD Technologies GmbH, Germany). To collect sufficient CL release data, the mouse was exposed thereto for 20 seconds each time. CL released from the mouse skin was recorded and visualized in real time, and then the CL released in an area of interest was quantified as total flux (photons/second).

hMSCs = assay: Western blotting of osteogenic differentiation via adenosine-A2B receptor signaling; format: cell-based

T1 sequence (P47900 whole entry, species assumed): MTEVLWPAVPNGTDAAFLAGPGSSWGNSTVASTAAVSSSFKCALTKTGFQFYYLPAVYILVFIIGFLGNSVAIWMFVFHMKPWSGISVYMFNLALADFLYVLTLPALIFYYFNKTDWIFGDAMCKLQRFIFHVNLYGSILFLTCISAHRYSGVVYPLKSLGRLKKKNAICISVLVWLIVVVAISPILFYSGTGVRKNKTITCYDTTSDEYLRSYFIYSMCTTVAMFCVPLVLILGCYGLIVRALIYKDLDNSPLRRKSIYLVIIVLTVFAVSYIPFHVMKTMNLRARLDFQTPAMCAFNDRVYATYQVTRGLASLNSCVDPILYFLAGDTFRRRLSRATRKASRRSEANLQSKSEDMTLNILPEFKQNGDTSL

Nc1ncnc2c1ncn2[C@@H]1O[C@H](COP(=O)([O-])OP(=O)([O-])OP(=O)(O)O)[C@@H](O)[C@H]1O.[Na+].[Na+] [ATP, Adenosine 5′-triphosphate disodium salt]
P2Y1 signaling (P2Y1): stimulated P2Y1 signaling | Arg-1 (M2 polarization marker) expression (macrophages): strongly expressed | P2X7 signaling (P2X7): inhibited P2X7 signaling

Nc1ncnc2c1ncn2[C@@H]1O[C@H](CO)[C@@H](O)[C@H]1O [Adenosine]
Osteogenic differentiation of stem cells (stem cells): induced the osteogenic differentiation to a similar level thereto

COc1cccc2c1C(=O)c1c(O)c3c(c(O)c1C2=O)C[C@@](O)(C(=O)CO)C[C@@H]3O[C@H]1C[C@H](N)[C@H](O)[C@H](C)O1 [Doxorubicin (DOX), Doxorubicin hydrochloride]
ROS production in vivo (L-012 signal) (ROS): has little effect on the ROS release in a short period of time

[Cl][Fe][Cl] [FeCl2, Iron(II) chloride]
Arg-1 (M2 polarization marker) expression (macrophages): not expressed

CCCn1c(=O)[nH]c2nc(-c3ccc(S(=O)(=O)N4CCN(c5ccc(Cl)cc5)CC4)cc3)[nH]c2c1=O [PSB 603]
Osteogenic differentiation of hMSCs (hMSCs): osteogenic differentiation of hMSCs was inhibited
